Columns and labels:
Format in all cases: functional
Escherichia coli = assay: Antibacterial activity against Escherichia coli ATCC 25922 assessed as inhibition of bacterial growth incubated for 18 hrs by two-fold dilution assay
Staphylococcus aureus [1] = assay: Antibacterial activity against Staphylococcus aureus […] assessed as inhibition of bacterial growth incubated for 18 hrs by two-fold dilution assay
[2] = system: Staphylococcus epidermidis; assay: Antibacterial activity against Staphylococcus epidermidis ATCC 12228 assessed as inhibition of bacterial growth incubated for 18 hrs by two-fold dilution assay
Enterococcus faecalis [3] = assay: Antibacterial activity against Enterococcus faecalis ATCC 29212 assessed as inhibition of bacterial growth incubated for 18 hrs by two-fold dilution assay
Enterococcus faecium [4] = assay: Antibacterial activity against vancomycin-resistant Enterococcus faecium ATCC 700221 assessed as inhibition of bacterial growth incubated for 18 hrs by two-fold dilution assay
[5] = system: Staphylococcus epidermidis; assay: Antibacterial activity against methicillin-resistant Staphylococcus epidermidis clinical isolate 16-5 assessed as inhibition of bacterial growth incubated for 18 hrs by two-fold dilution assay
Enterococcus faecium [6] = assay: Antibacterial activity against Enterococcus faecium clinical isolate 16-5 assessed as inhibition of bacterial growth incubated for 18 hrs by two-fold dilution assay
Enterococcus faecalis [7] = assay: Antibacterial activity against vancomycin-resistant Enterococcus faecalis ATCC 51299 assessed as inhibition of bacterial growth incubated for 18 hrs by two-fold dilution assay
Staphylococcus aureus [8] = assay: Antibacterial activity against Staphylococcus aureus ATCC 29213 assessed as inhibition of bacterial growth incubated for 18 hrs by two-fold dilution assay
Staphylococcus aureus [9] = assay: Antibacterial activity against methicillin-resistant Staphylococcus aureus ATCC 33591 assessed as inhibition of bacterial growth incubated for 18 hrs by two-fold dilution assay
Staphylococcus aureus [10] = assay: Antibacterial activity against methicillin-resistant Staphylococcus aureus […] assessed as inhibition of bacterial growth incubated for 18 hrs by two-fold dilution assay

Measured: MIC

CC(C)=C[C@H]1c2cccc3[nH]cc(c23)C[C@H]2C(=O)/C(=C(\C)O)C(=O)N21
≥ 64 µg/mL: all assays above

CC(C)=C[C@@H]1c2cccc3[nH]cc(c23)C[C@@H]2C(=O)/C(=C(\C)O)C(=O)N21
≥ 64 µg/mL: all assays above

CC(C)=C[C@H]1c2cccc3[nH]cc(c23)C[C@@H]2C(=O)/C(=C(\C)O)C(=O)N21
≥ 64 µg/mL: all assays above

CC(C)=C[C@@H]1c2cccc3[nH]cc(c23)C[C@H]2C(=O)/C(=C(\C)O)C(=O)N12
≥ 64 µg/mL: all assays above

Reference: ChEMBL document CHEMBL5120776, “Asymmetric Total Synthesis of Griseofamine B and Its Three Stereoisomers” (2022)
